# Test results: ChEMBL document CHEMBL1201862, “PubChem BioAssay data set” (2004)
#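 48-hour exposure; five concentrations; linearly interpolated endpoints. Abbreviation: GI50, concentration required for 50% inhibition of growth.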 Activity calls are given as the source filed them. Cut-off read from the data, not from the text of the source: active = GI50 up to about 1.1 µM and inactive = higher.
# Tests used:
# Test in all cases: inhibition of tumour cell growth, NCI panel, 48 h
# [1] = system: 786-0
# [2] = system: A498
# [3] = system: A549
# [4] = system: ACHN
# [5] = system: CCRF-CEM
# [6] = system: DU-145
# [7] = system: IGROV-1
# [8] = system: M14
# [9] = system: MDA-MB-435
# [10] = system: Malme-3M
# [11] = system: NCI-H226
# [12] = system: SK-MEL-28
# [13] = system: SK-MEL-2
# [14] = system: SK-MEL-5
# [15] = system: SN12C
# [16] = system: SNB-19
# [17] = system: SW-620
# [18] = system: T47D
# [19] = system: UACC-62
Structure (SMILES),GI50 [1],GI50 [2],GI50 [3],GI50 [4],GI50 [5],GI50 [6],GI50 [7],GI50 [8],GI50 [9],GI50 [10],GI50 [11],GI50 [12],GI50 [13],GI50 [14],GI50 [15],GI50 [16],GI50 [17],GI50 [18],GI50 [19]
O=C1C(=C(C(F)(F)Cl)C(F)(F)Cl)C2CCC1C2 (centres undefined),1.87 µM (inactive),> 10 µM (inactive),2.2 µM (inactive),1.84 µM (inactive),0.00986 µM (active),7.53 µM (inactive),1.89 µM (inactive),1.16 µM (inactive),1.88 µM (inactive),1.55 µM (inactive),> 5.38 µM (inactive),1.93 µM (inactive),1.78 µM (inactive),1.67 µM (inactive),1.97 µM (inactive),> 10 µM (inactive),1.82 µM (inactive),1.38 µM (inactive),2.01 µM (inactive)
N#CC1=C2SCCN2C(=O)C(C#N)C12CCCCC2 (centres undefined),> 100 µM (inactive),> 100 µM (inactive),> 100 µM (inactive),> 100 µM (inactive),> 100 µM (inactive),> 100 µM (inactive),> 100 µM (inactive),> 100 µM (inactive),> 100 µM (inactive),> 100 µM (inactive),> 100 µM (inactive),> 100 µM (inactive),> 100 µM (inactive),> 100 µM (inactive),> 100 µM (inactive),> 100 µM (inactive),> 100 µM (inactive),> 100 µM (inactive),> 100 µM (inactive)
O=c1[nH]c(=O)n(C2OC(CO)C(O)C2O)cc1OCCCc1ccccc1 (centres undefined),> 100 µM (inactive),> 100 µM (inactive),> 100 µM (inactive),> 100 µM (inactive),> 100 µM (inactive),> 100 µM (inactive),> 100 µM (inactive),> 100 µM (inactive),> 100 µM (inactive),> 100 µM (inactive),> 100 µM (inactive),> 100 µM (inactive),> 100 µM (inactive),> 100 µM (inactive),> 100 µM (inactive),> 100 µM (inactive),> 100 µM (inactive),> 100 µM (inactive),> 100 µM (inactive)
Cc1cccc(C)c1/N=N/c1ccc(O)c(CN(C)C)c1,43.9 µM (inactive),35.6 µM (inactive),65.9 µM (inactive),36.2 µM (inactive),34.8 µM (inactive),> 100 µM (inactive),26.3 µM (inactive),24.7 µM (inactive),41.8 µM (inactive),20.5 µM (inactive),87.9 µM (inactive),20.7 µM (inactive),25.2 µM (inactive),11.7 µM (inactive),> 100 µM (inactive),> 100 µM (inactive),91.2 µM (inactive),23.6 µM (inactive),26.7 µM (inactive)
CCN(CC)C1Oc2cc3c(cc2C(c2cc(OC)c(OC)c(OC)c2)C1C)OCO3 (centres undefined),1.33 µM (inactive),1.59 µM (inactive),1.55 µM (inactive),2.14 µM (inactive),0.406 µM (active),1.77 µM (inactive),1.52 µM (inactive),0.64 µM (active),0.113 µM (active),0.748 µM (active),0.875 µM (active),0.719 µM (active),0.887 µM (active),0.408 µM (active),1.52 µM (inactive),1.29 µM (inactive),0.531 µM (active),9.35 µM (inactive),1.06 µM (active)
O=C1C=CC(=O)c2c1ccc1c3ccccc3n(CCCCCn3c4ccccc4c4ccc5c(c43)C(=O)C=CC5=O)c21,6.87 µM (inactive),54.5 µM (inactive),> 100 µM (inactive),15.3 µM (inactive),0.454 µM (active),> 55.7 µM (inactive),14.7 µM (inactive),20.1 µM (inactive),22 µM (inactive),16.7 µM (inactive),> 100 µM (inactive),16.4 µM (inactive),23.3 µM (inactive),32.4 µM (inactive),18.4 µM (inactive),41.2 µM (inactive),8.17 µM (inactive),4.81 µM (inactive),25.7 µM (inactive)
Cc1cc(-n2nnc(C(=O)O)c2-c2ccccc2)c2ccc(Cl)cc2n1,> 100 µM (inactive),> 100 µM (inactive),> 100 µM (inactive),> 100 µM (inactive),> 100 µM (inactive),> 100 µM (inactive),> 100 µM (inactive),> 100 µM (inactive),> 100 µM (inactive),> 100 µM (inactive),> 100 µM (inactive),> 100 µM (inactive),> 100 µM (inactive),> 100 µM (inactive),> 100 µM (inactive),> 100 µM (inactive),> 100 µM (inactive),> 100 µM (inactive),> 100 µM (inactive)
C=C1C(=O)OC2CC1C(O)C/C(C)=C/CC/C(C)=C/C(O)CC2C (centres undefined),1.53 µM (inactive),3.24 µM (inactive),12.4 µM (inactive),1.65 µM (inactive),0.203 µM (active),2.2 µM (inactive),2.75 µM (inactive),2.51 µM (inactive),2.85 µM (inactive),2.37 µM (inactive),9.33 µM (inactive),4.9 µM (inactive),3.4 µM (inactive),4.19 µM (inactive),1.85 µM (inactive),5.47 µM (inactive),2 µM (inactive),0.824 µM (active),2.34 µM (inactive)
CCC1(C)C=Cc2c(cc(O)c3c(=O)c4ccccc4n(C)c23)O1 (centres undefined),> 10 µM (inactive),> 10 µM (inactive),> 10 µM (inactive),> 10 µM (inactive),> 10 µM (inactive),> 10 µM (inactive),> 10 µM (inactive),> 10 µM (inactive),> 10 µM (inactive),> 10 µM (inactive),> 10 µM (inactive),> 10 µM (inactive),> 10 µM (inactive),> 10 µM (inactive),> 10 µM (inactive),> 10 µM (inactive),> 10 µM (inactive),> 10 µM (inactive),> 10 µM (inactive)
COC(=O)C(/C(=N\O)C(=O)Nc1cccc(Cl)c1C)c1cnc2ccccc2n1 (centres undefined),> 100 µM (inactive),> 100 µM (inactive),> 100 µM (inactive),> 100 µM (inactive),> 100 µM (inactive),> 100 µM (inactive),> 100 µM (inactive),> 100 µM (inactive),> 100 µM (inactive),> 100 µM (inactive),> 100 µM (inactive),> 100 µM (inactive),> 100 µM (inactive),> 100 µM (inactive),> 100 µM (inactive),> 100 µM (inactive),> 100 µM (inactive),> 100 µM (inactive),> 100 µM (inactive)
CC1(C)CCCC(C)(C2CCC3(C)C2C(O)CC2C4(C)CCC(O)C(C)(C)C4CCC23C)O1 (centres undefined),75.7 µM (inactive),> 100 µM (inactive),> 100 µM (inactive),56.9 µM (inactive),> 100 µM (inactive),> 100 µM (inactive),> 100 µM (inactive),> 100 µM (inactive),> 100 µM (inactive),98.6 µM (inactive),> 100 µM (inactive),> 100 µM (inactive),> 100 µM (inactive),47.8 µM (inactive),> 100 µM (inactive),42.6 µM (inactive),> 100 µM (inactive),> 100 µM (inactive),> 100 µM (inactive)
